biological target: Human eIF4E (aa 28-217) / biotin labeled 4G2 peptide (Homo sapiens (Human), UniProt P06730); assay: Human eIF4E/4G2 binding assay (TR-FRET); details: Human eIF4E/4G2 TR-FRET binding assay; head says IC50, legend says EC50
Procedure: Example 5. Compound Testing in Human eIF4E/4G2 Binding Assay
Human eIF4E (aa 28-217) with a C-terminal His-tag was expressed in E. coli in inclusion bodies. The protein was solubilized with 8 M urea and purified under denaturing conditions using nickel-charged HisTrap HP columns (GE Healthcare). The purified protein was then refolded by diluting in 20 mM Hepes pH 7.0, 0.5 M NaCl, 1 mM DTT, 1 mM EDTA, 0.5 M arginine plus 6 M urea, and then dialyzing overnight into the same buffer without the urea. The protein was further dialyzed into 20 mM Hepes, pH 6.5, 50 mM NaCl, 1 mM EDTA, 1 mM DTT, and concentrated using Hitrap SP sepharose FF columns (GE Healthcare). The concentrated protein was dialyzed into 20 mM Hepes, pH 7.0, 0.5M NaCl, 5 mM DTT and 10% glycerol, and stored at −80° C. until use.
Test compounds (3.43 mM stock in DMSO) were diluted 2-fold in series in DMSO (10 concentration points). Compound solutions (1.2 μl/well) were added into black 384-well polypropylene microplates (Matrix, Thermal Scientific). Twenty-two microliters per well of Assay Buffer (50 mM NaPi, pH 6.5, 50 mM KCl, 1 mM DTT and 0.5 mg/ml gamma globulin) and eight microliters per well of 82.5 nM purified eIF4E in Assay Buffer were added. The samples were incubated at room temperature (20-23° C.) for 4 hours. Biotin labeled 4G2 peptide (Ac-Lys-Gln-Tyr-Asp-Arg-Glu-Phe-Leu-Leu-Asp-Phe-Gln-Phe-Met-Pro-Lys(Aha-Bio)-NH2, 1.75 μM stock in DMSO) was diluted to 0.14 μM in Assay Buffer (without DTT) and 5 μl/well was added. The samples were incubated at room temperature for 20 min. Five microliters per well of 6.4 nM Eu-streptavidin (Eu-SA, Perkin Elmer) and 80 nM Allophycocyanin (APC)-anti His antibody (Columbia Biosciences) in Assay Buffer (without DTT) were then added and the samples were incubated at room temperature for 20 min.
Assay signals were monitored by reading excitation at 340 nm and emission fluorescence at 615 nm and 665 nm on an Envision reader (Perkin Elmer). Normalized TR-FRET (time-resolved fluorescence resonance energy transfer) assay signal (Rn) was calculated by the formula: Rn=[(A−Ba−C×D)/(D−Bd)]×(Dc−Bd) Where A is the fluorescence intensity of the sample at 665 nm, • D is the fluorescence intensity of the sample at 615 nm, • Ba and Bd are plate backgrounds at 665 nm and 615 nm, respectively, • Dc is the fluorescence intensity of 0.78 nM Eu-SA in the assay buffer at 615 nm The cross-talk factor (C) is determined by the following formula: C=(Ac−Ba)/(Dc−Bd) Where Ac is the fluorescence intensity of 0.78 nM Eu-SA in the assay buffer at 665 nm.
IC50 values were calculated using xLFit program (IDBS). Table 2 below lists EC50 of some compounds, wherein A represents EC50≤1 uM; B represents 1 uM<EC50≤10 uM; and C represents EC50>10 uM.

Sequence of Human eIF4E (aa 28-217) / biotin labeled 4G2 peptide (P06730 28-217): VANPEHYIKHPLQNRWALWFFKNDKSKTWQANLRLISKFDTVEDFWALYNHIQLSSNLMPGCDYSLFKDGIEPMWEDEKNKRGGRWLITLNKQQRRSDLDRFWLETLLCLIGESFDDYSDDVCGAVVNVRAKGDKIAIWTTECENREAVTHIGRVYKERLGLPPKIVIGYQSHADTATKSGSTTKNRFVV

| SMILES | IC50 [µM] |
| --- | --- |
| CSc1cccc(CC(CNc2nc(-c3ccc(Cl)c(Cl)c3)c(CC(C)C)s2)C(=O)O)c1 (centres unmarked) [I-171] | ≤ 1 |
| CC(C)Cc1sc(N(CCC(N)=O)Cc2ccccc2)nc1-c1ccc(Cl)c(Cl)c1 [I-189] | > 10 |
| CC(C)Cc1sc(-c2ccc(C(F)(F)F)c(C(=O)O)c2)nc1-c1ccc(Cl)c(Cl)c1 [I-227] | 1 to 10 |
| CC(C)Cc1sc(Nc2cccc(C(=O)NCCN)c2)nc1-c1ccc(Cl)c(Cl)c1 [I-218, N-(2-aminoethyl)-3-(4-(3,4-dichlorophenyl)-5-isobutylthiazol-2-ylamino)benzamide] | > 10 |
| CC(C)Cc1sc(N(CCC(=N)N)Cc2ccccc2)nc1-c1ccc(Cl)c(Cl)c1 [I-230, 3-(benzyl(4-(3,4-dichlorophenyl)-5-isobutylthiazol-2-yl)amino)propanimidamide] | > 10 |
| CC(C)Cc1sc(NCC(Cc2ccc(N)nc2)C(=O)O)nc1-c1ccc(Cl)c(Cl)c1 (centres unmarked) [I-153] | > 10 |
| CC(C)Cc1sc(-c2cccc(C(=O)O)c2)nc1-c1ccc(Cl)c(Cl)c1 [I-203, 3-(4-(3,4-dichlorophenyl)-5-isobutylthiazol-2-yl)benzoic acid] | 1 to 10 |
| O=C(O)CCN(CCc1ccccc1)c1nc(-c2ccc(Cl)c(Cl)c2)c(C2CC2)s1 [I-57] | ≤ 1 |
| CC(C)Cc1sc(Nc2ncc(-c3cccs3)cc2C(=O)O)nc1-c1ccc(OCCO)c(Cl)c1 [I-331] | ≤ 1 |
| CC(C)Cc1sc(N(CCC(=O)O)CCc2ccccc2)nc1-c1ccc(Cl)c(Cl)c1 [I-52] | ≤ 1 |
| CC(C)Cc1sc(N2CCN(C(=O)CCN)C(C(=O)O)C2)nc1-c1ccc(Cl)c(Cl)c1 (centres unmarked) [I-199, 1-(3-aminopropanoyl)-4-(4-(3,4-dichlorophenyl)-5-isobutylthiazol-2-yl)piperazine-2-carboxylic acid] | > 10 |
| CC(C)Cc1sc(N(CCC(=O)O)CC(N)=O)nc1-c1ccc(Cl)c(Cl)c1 [I-64] | 1 to 10 |
| CC(C)Cc1sc(N(CCC(=O)O)CCc2cccc(Cl)c2)nc1-c1ccc(Cl)c(Cl)c1 [I-94] | ≤ 1 |
| Cc1ccc(-c2nc(N(CCC(=O)O)Cc3ccccc3)sc2C(C)C)cc1C [I-75] | 1 to 10 |
| CC(C)Cc1sc(-c2cc(C(=O)O)c(F)cn2)nc1-c1ccc(Cl)c(Cl)c1 [I-240] | 1 to 10 |
| CC(C)Cc1sc(NCC(Cc2cnc(O)nc2)C(=O)O)nc1-c1ccc(Cl)c(Cl)c1 (centres unmarked) [I-159, 3-(4-(3,4-dichlorophenyl)-5-isobutylthiazol-2-ylamino)-2-((2-hydroxypyrimidin-5-yl)methyl)propanoic acid] | 1 to 10 |
| CC(C)Cc1sc(Nc2cc(C(C)(C)C)sc2C(=O)O)nc1-c1ccc(Cl)c(Cl)c1 [I-274] | ≤ 1 |
| CC(C)c1sc(N(CCC(=O)O)Cc2ccccc2)nc1-c1ccc(F)c(F)c1 [I-77] | 1 to 10 |
| CN(C)Cc1sc(N(CCC(=O)O)Cc2ccccc2)nc1-c1ccc(Cl)c(Cl)c1 [I-89, 3-(benzyl(4-(3,4-dichlorophenyl)-5-((dimethylamino)methyl)thiazol-2-yl)amino)propanoic acid] | > 10 |
| CCOC(=O)c1sc(NCC(Cc2ccccc2)C(=O)O)nc1-c1ccc(Cl)c(Cl)c1 (centres unmarked) [I-182, 2-benzyl-3-(4-(3,4-dichlorophenyl)-5-(ethoxycarbonyl)thiazol-2-ylamino)propanoic acid] | 1 to 10 |
| CC(C)Cc1sc(N(CCC(=O)O)CC2CCCCC2)nc1-c1ccc(Cl)c(Cl)c1 [I-87] | ≤ 1 |
| CC(C)Cc1sc(Nc2ccccc2C(=O)O)nc1-c1ccc(Cl)c(Cl)c1 [I-141, 2-(4-(3,4-dichlorophenyl)-5-isobutylthiazol-2-ylamino)benzoic acid] | 1 to 10 |
| COc1ccc(-c2nc(Nc3ncc(C(F)(F)F)cc3C(=O)O)sc2CC(C)C)cc1Cl [I-325] | ≤ 1 |

The remaining lines, values ahead:

| IC50 [µM] | SMILES |
| --- | --- |
| 1 to 10 | Cc1ncccc1CC(CNc1nc(-c2ccc(Cl)c(Cl)c2)c(CC(C)C)s1)C(=O)O (centres unmarked) [I-156] |
| 1 to 10 | CC(=O)NS(=O)(=O)CCN(Cc1ccccc1)c1nc(-c2ccc(Cl)c(Cl)c2)c(CC(C)C)s1 [I-99, N-(2-(benzyl(4-(3,4-dichlorophenyl)-5-isobutylthiazol-2-yl)amino)ethylsulfonyl)acetamide] |
| ≤ 1 | CC(C)Cc1sc(Nc2ccsc2C(=O)O)nc1-c1ccc(Cl)c(Cl)c1 [I-256] |
| > 10 | CC(C)Cc1sc(NCC(N)C(=O)O)nc1-c1ccc(Cl)c(Cl)c1 (centres unmarked) [I-115, 2-amino-3-(4-(3,4-dichlorophenyl)-5-isobutylthiazol-2-ylamino)propanoic acid] |
| ≤ 1 | COc1ccc(-c2nc(Nc3ncc(-c4cccs4)cc3C(=O)O)sc2C(C)C)cc1Cl [I-324] |
| ≤ 1 | CC(C)c1sc(Nc2ncc(C(F)(F)F)cc2C(=O)O)nc1-c1nc2ccccc2s1 [I-320, 2-(4-(benzo[d]thiazol-2-yl)-5-isopropylthiazol-2-ylamino)-5-(trifluoromethyl)nicotinic acid] |
| 1 to 10 | CC(C)c1sc(N(CCC(=O)O)Cc2ccccc2)nc1-c1ccc(F)c(Cl)c1 [I-78] |
| 1 to 10 | CC(C)Cc1sc(N(CCC(=O)O)Cc2ccc(O)cc2)nc1-c1ccc(Cl)c(Cl)c1 [I-73] |
| > 10 | CC(C)Cc1sc(N(Cc2ccccc2)C(=O)CC(=O)O)nc1-c1ccc(Cl)c(Cl)c1 [I-143, 3-(benzyl(4-(3,4-dichlorophenyl)-5-isobutylthiazol-2-yl)amino)-3-oxopropanoic acid] |
| 1 to 10 | COc1ccccc1CC(CNc1nc(-c2ccc(Cl)cc2)c(C(C)C)s1)C(=O)O (centres unmarked) [I-40] |
| > 10 | COc1cccc(-c2nc(NCC(Cc3cccc(O)c3)C(=O)O)sc2C(C)C)c1 (centres unmarked) [I-31] |
| ≤ 1 | CC(C)Cc1sc(NCC(Cc2cccc(F)c2)C(=O)O)nc1-c1ccc(Cl)c(Cl)c1 (centres unmarked) [I-22] |
| 1 to 10 | CC(C)Cc1sc(N(CCC(=O)O)Cc2cccnc2)nc1-c1ccc(Cl)c(Cl)c1 [I-62] |
| > 10 | CC(C)Cc1sc(N(CCC(=O)NCC(N)=O)Cc2ccccc2)nc1-c1ccc(Cl)c(Cl)c1 [I-193] |
| 1 to 10 | COc1ccc(CC(CNc2nc(-c3ccc(Cl)c(Cl)c3)c(CC(C)C)s2)C(=O)O)cn1 (centres unmarked) [I-163] |
| > 10 | CC(C)Cc1sc(N(CCCN(C)C)CCC(=O)O)nc1-c1ccc(Cl)c(Cl)c1 [I-71] |
| > 10 | CC(C)Cc1sc(N(CCC(=O)O)CCN(C)C)nc1-c1ccc(Cl)c(Cl)c1 [I-72] |
| 1 to 10 | COc1cccc(-c2nc(NCC(Cc3ccccc3OC)C(=O)O)sc2C(C)C)c1 (centres unmarked) [I-30] |
| ≤ 1 | CC(C)Cc1sc(Nc2cc(F)cc(C(=O)O)c2)nc1-c1ccc(Cl)c(Cl)c1 [I-212] |
| 1 to 10 | CC(C)Cc1sc(Nc2ccnc(C(=O)O)c2)nc1-c1ccc(Cl)c(Cl)c1 [I-220] |
| 1 to 10 | CC(C)c1sc(NCC(Cc2cccc(F)c2)C(=O)O)nc1-c1ccc(Cl)c(Cl)c1 (centres unmarked) [I-5] |
| 1 to 10 | CC(C)Cc1sc(N(CCC(=O)N2CCNCC2)Cc2ccccc2)nc1-c1ccc(Cl)c(Cl)c1 [I-134] |
| ≤ 1 | COc1ccc(-c2nc(Nc3ncc(-c4cccs4)cc3C(=O)O)sc2CC(C)C)cc1 [I-333] |
| 1 to 10 | CNC(=O)c1cccc(CC(CNc2nc(-c3ccc(Cl)c(Cl)c3)c(CC(C)C)s2)C(=O)O)c1 (centres unmarked) [I-169] |
| ≤ 1 | CC(C)Cc1sc(NCC(NC(=O)OCc2ccccc2)C(=O)O)nc1-c1ccc(Cl)c(Cl)c1 (centres unmarked) [I-138, 2-(benzyloxycarbonylamino)-3-(4-(3,4-dichlorophenyl)-5-isobutylthiazol-2-ylamino) propanoic acid] |
| ≤ 1 | CC(C)c1sc(Nc2ncc(-c3cccc(F)c3)cc2C(=O)O)nc1-c1ccc(Cl)c(Cl)c1 [I-266] |
| 1 to 10 | CSc1sc(NCC(Cc2ccccc2)C(=O)O)nc1-c1ccc(Cl)c(Cl)c1 (centres unmarked) [I-206, 2-benzyl-3-(4-(3,4-dichlorophenyl)-5-(methylthio)thiazol-2-ylamino)propanoic acid] |
| 1 to 10 | Cc1noc(CN(CCC(=O)O)c2nc(-c3ccc(Cl)c(Cl)c3)c(CC(C)C)s2)n1 [I-68] |
| > 10 | CC(C)Cc1sc(N(CCC(=O)NS(=O)(=O)CCN)Cc2ccccc2)nc1-c1ccc(Cl)c(Cl)c1 [I-198] |
| > 10 | O=C(O)CCN(Cc1ccccc1)c1nc(-c2ccc(Cl)c(Cl)c2)c(CN2CCC2)s1 [I-130] |
